As usually defined, the IC50 is the concentration that inhibits the measured activity by half.

Data on seven compounds can be found in patent publication US20080051420A1, “New Compounds 317” (AstraZeneca AB, priority 2006, published 2008).

T1 sequence (P56817 22-460): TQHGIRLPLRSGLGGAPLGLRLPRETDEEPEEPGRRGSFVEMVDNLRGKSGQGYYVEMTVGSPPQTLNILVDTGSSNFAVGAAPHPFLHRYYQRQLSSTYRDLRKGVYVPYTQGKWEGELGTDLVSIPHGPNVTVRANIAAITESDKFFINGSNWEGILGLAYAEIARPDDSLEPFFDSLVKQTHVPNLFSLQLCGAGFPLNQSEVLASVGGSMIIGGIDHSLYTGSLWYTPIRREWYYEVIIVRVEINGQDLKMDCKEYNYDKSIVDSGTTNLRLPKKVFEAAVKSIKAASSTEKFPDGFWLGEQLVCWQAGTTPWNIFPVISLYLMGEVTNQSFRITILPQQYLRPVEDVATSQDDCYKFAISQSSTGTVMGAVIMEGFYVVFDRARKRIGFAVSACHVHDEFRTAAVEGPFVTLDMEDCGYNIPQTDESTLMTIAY

This assay addresses T1, human β-secretase (Homo sapiens, UniProt P56817).
T1 construct: The soluble part of the human β-secretase (AA 1-AA 460) was cloned; made in house
Description: TR-FRET assay (β-secretase enzyme, sBACE-Fc). The class given is biochemical. The following applies: read-out: IC50 in TR-FRET assay. The procedure:
The enzyme used in the IGEN Cleavage-, Fluorescent-, TR-FRET- and BiaCore assays is described as follows:
The soluble part of the human β-secretase (AA 1-AA 460) was cloned into the ASP2-F10-1-IRES-GFP-neoK mammalian expression vector. The gene was fused to the Fc domain of IgG1 (affinity tag) and stably cloned into HEK 293 cells. Purified sBACE-Fc is stored in Tris buffer, pH 9.2 and has a purity of 95%.
Enzyme was diluted to 6 μg/mL and the substrate (Europium)[…](Qsy7) to 200 nM in reaction buffer (NaAcetate, chaps, triton x-100, EDTA pH 4.5). Compounds were diluted to the desired concentration in dimethyl sulfoxide (final dimethyl sulfoxide concentration in assay is 5%). […] Enzyme (9 μL) and 1 μL of compound in dimethyl sulfoxide was added to the plate, mixed and pre-incubated for 10 min. Substrate (10 μL) was added and the reaction proceeded in the dark for 15 min at RT. The reaction was stopped with the addition of 7 μL NaAcetate, pH 9. […] The dimethyl sulfoxide control defined the 100% activity level and 0% activity was defined by exclusion of the enzyme (using reaction buffer instead).
Regarding `NC1=NC(c2cccc(OS(=O)(=O)C(F)(F)F)c2)(c2cccc(-c3cccnc3)c2)C2=NCCCN12` (stereo not shown) [Example 130, 3-[6-Amino-8-(3-pyridin-3-ylphenyl)-2,3,4,8-tetrahydroimidazo[1,5-a]pyrimidin-8-yl]phenyl trifluoromethanesulfonate], the IC50 was 137 nM.

On to `CS(=O)(=O)Oc1cccc(C2(c3cccc(-c4cncnc4)c3)N=C(N)N3CCCN=C32)c1` (stereo not shown) [Example 120, 3-[6-Amino-8-(3-pyrimidin-5-ylphenyl)-2,3,4,8-tetrahydroimidazo[1,5-a]pyrimidin-8-yl]phenyl methanesulfonate], for which the IC50 was found to be 272 nM.

With `COc1cc(OS(C)(=O)=O)cc(-c2cccc(C3(c4cccc(OC)c4)N=C(N)N4CCCN=C43)c2)c1` (stereo not shown) [Example 133, 3′-[6-Amino-8-(3-methoxyphenyl)-2,3,4,8-tetrahydroimidazo[1,5-a]pyrimidin-8-yl]-5-methoxybiphenyl-3-yl methanesulfonate], the IC50 came out at 375 nM.

For `CCCS(=O)(=O)Oc1ccc(C2(c3cccc(-c4cnccn4)c3)N=C(N)N3CCCN=C32)cc1` (stereo not shown) [Example 54, 4-[6-Amino-8-(3-pyrazin-2-ylphenyl)-2,3,4,8-tetrahydroimidazo[1,5-a]pyrimidin-8-yl]phenyl propane-1-sulfonate acetate], the IC50 was determined as 347 nM.

As for `CN(C)C(=O)c1ccc(C2(c3cccc(-c4cccnc4F)c3)N=C(N)N3CC(F)(F)CN=C32)cc1` (stereo not shown) [Example 146, 4-{6-Amino-3,3-difluoro-8-[3-(2-fluoropyridin-3-yl)phenyl]-2,3,4,8-tetrahydroimidazo[1,5-a]pyrimidin-8-yl}-N,N-dimethylbenzamide], the IC50 is 214 nM.

On to `CS(=O)(=O)Oc1cccc(C2(c3cccc(-c4cc(C(F)(F)F)cc(C(F)(F)F)c4)c3)N=C(N)N3CCCN=C32)c1` (stereo not shown) [Example 114, 3-{6-Amino-8-[3′,5′-bis(trifluoromethyl)biphenyl-3-yl]-2,3,4,8-tetrahydroimidazo[1,5-a]pyrimidin-8-yl}phenyl methanesulfonate], for which the IC50 amounted to 246 nM.

In the case of `NC1=NC(c2ccc(OS(=O)(=O)C3CC3)cc2)(c2cccc(-c3cccc(Cl)c3F)c2)C2=NCCCN12` (stereo not shown) [Example 71, 4-[6-Amino-8-(3′-chloro-2′-fluorobiphenyl-3-yl)-2,3,4,8-tetrahydroimidazo[1,5-a]pyrimidin-8-yl]phenyl cyclopropane sulfonate 0.75 acetate], the IC50 came to 390 nM.
